Measurements: ChEMBL document CHEMBL1201862, “PubChem BioAssay data set” (2004)
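Compound exposure: 48 hours, 5 concentrations, 96-well plates. GI50 = concentration required for 50% inhibition of growth.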 The source made the active and inactive calls. Cut-off read from the data, not from the text of the source: active = GI50 up to about 1.1 µM and inactive = higher.

Experiments:
Assay in all cases: growth of human tumour cells (NCI), 48 h
[1] = tested on: M19-MEL
[2] = tested on: DMS-114
[3] = tested on: SNB-78
[4] = tested on: 786-0
[5] = tested on: RXF 631
[6] = tested on: MDA-MB-231
[7] = tested on: Hs-578T
[8] = tested on: PC-3
[9] = tested on: BT-549

Measured: GI50

COc1cc(Cc2ccc3c(c2C#N)N(C)c2ccccc2S3)cc(OC)c1OC
inactive: [1] 52.4 µM | [2] 14.6 µM | [3] > 100 µM

CCc1ccccc1NC(=O)C1=C(C)NC(C)=C(C(=O)Nc2ccccc2CC)C1c1cccc([N+](=O)[O-])c1
inactive: [1] 44.7 µM | [2] 30.1 µM | [4] 43 µM | [3] 43.5 µM | [5] 46.3 µM

Cc1cc(NS(=O)(=O)c2ccc(NC(=O)c3cccc4c(Nc5ccc(S(N)(=O)=O)cc5)c5ccccc5nc34)cc2)no1
inactive: [1] > 100 µM | [2] > 100 µM | [3] > 100 µM | [5] > 100 µM

COc1cc([N+](=O)[O-])ccc1NC(=O)c1cccc([N+](=O)[O-])c1O
inactive: [1] 24.6 µM | [2] 22.7 µM | [3] 27.9 µM | [5] 30.8 µM

CC(NCc1c(O)ccc2ccc(=O)oc12)C(=O)O (stereo not drawn)
inactive: [6] > 100 µM | [7] > 100 µM | [8] > 100 µM | [4] > 100 µM

Cc1cc2c(C)nn(Cc3ccc(Cl)cc3)c2c(C#N)c1C
inactive: [1] > 100 µM | [4] 63.2 µM | [3] > 100 µM | [5] > 100 µM

C=C(c1ccccc1)c1cc2c(=O)[nH]ccc2n1C
inactive: [1] 38.6 µM | [2] 19.1 µM | [4] 27.5 µM | [3] 48.5 µM

O=C1c2ccccc2N1C(=O)c1ccccc1[N+](=O)[O-]
inactive: [7] 56.1 µM | [8] > 100 µM | [4] 57 µM

O=C1OC(c2ccc(O)c(F)c2)(c2ccc(O)c(F)c2)c2cccc3cccc1c23
inactive: [6] > 25 µM | [7] 2.03 µM | [8] 3.09 µM

N#CCCOCN(CO)c1nc(N(CO)COCCC#N)nc(N(CO)COCCC#N)n1
inactive: [1] 23.8 µM | [2] 24.3 µM | [3] 79.4 µM

COCCOCOc1ccc(OCc2ccccc2)cc1
inactive: [1] > 63.4 µM | [2] 40.9 µM | [3] > 100 µM

CSc1nc(N)c2c(-c3ccccc3)c3c(nc2n1)CCCC3
inactive: [6] > 100 µM | [7] 21.5 µM | [9] > 100 µM | [8] > 100 µM

NC(=O)Oc1ccccc1 [CARBAMIC ACID PHENYL ESTER]
inactive: [6] > 100 µM | [7] > 100 µM | [8] > 100 µM

CC(=C/c1ccccc1)/C=C1/NC(=S)N(/C=C2\C(=O)Oc3ccccc3C2=O)C1=O
inactive: [6] 45.9 µM | [8] 96.6 µM

N#CC1=C(N)N(c2ccccc2)C(c2ccco2)C1(C#N)C#N (stereo not drawn)
inactive: [6] 15.3 µM | [7] 36.6 µM | [9] 18.8 µM | [8] 27.4 µM | [4] 17.5 µM

Cc1ccccc1-c1nc2c(C(=O)NCCN(C)C)cccc2[nH]1
inactive: [2] 47.5 µM | [3] 51.5 µM

COc1ccc(-c2nnc(-c3ccncc3)o2)cc1
inactive: [6] > 100 µM | [7] > 100 µM | [9] > 100 µM | [8] > 100 µM | [4] > 100 µM

Cc1ccc(NC(=O)c2cccc([N+](=O)[O-])c2O)c(C)c1
inactive: [1] 24.4 µM | [2] 20.1 µM | [3] 26.9 µM

CC(=O)ON1C(=O)c2cccc3cccc(c23)C1=O
inactive: [6] 29 µM | [7] 23.6 µM | [9] 20.9 µM | [8] 25.8 µM
